Residues, ends and D or L forms follow the SMILES beside them.
Legend:
hepatoma-27 = test: Growth of transplanted hepatoma-27 in rats; type: in vivo; settings: for Mean life span (days after the tumour transplantation): rats with hepatoma-27; for Tumour growth: tetrapeptide 1 μg/kg s.c. 10 days, stabilised since 30th day, cyclophosphamide 100 μg/kg i.p. once, from 16th day; for Animals with complete tumour resolution: tetrapeptide: days 16, 25, 43, cyclophosphamide: days 28, 32, 41 after transplantation
Method: The study was performed on 37 female rats weighing 150-200 g with hepatoma-27 subcutaneously transplanted to the right femur region. […] Cyclophosphamide administered once intraperitoneally in the dose of 100 μg/kg was employed as a positive control. The tumour dynamics and animals' survival rate were assessed in experiments.

[1] = tested on: patients with chronic persistent hepatitis; test: Clinical application in patients with chronic persistent hepatitis; type: in vivo, human
Method: The trial was carried out on 23 patients aged 32–53 years. The disease duration constituted 10–20 years. 79% of the patients had virus hepatitis A in the case history and 11%—virus hepatitis B. The majority of the patients complained of pains in the right hypochondrium, general weakness and quick fatigability. 45% of the patients noted dyspeptic disorders. All the patients had previously received periodic conventional medications.
The control group included 12 analogous patients treated by conventional methods.
The patients' complaints were assessed in dynamics. Performed were total blood and urine counts, biochemical blood investigation (“REFLOTRON”, Boehringer Mannheim, Germany) and immune assay of the peripheral blood (definition of Ig according to Mancini). Ultrasound investigation of-the liver was carried out on an ultrasound apparatus (ALOKA, Japan). Against the background of the applied treatment 93% of the patients noted weakness elimination, improved appetite and increased workability. […] The biochemical test results were in the focus of attention during the patients' examination. They reflected aminotransferase activity, pigment- and protein-forming functions of the liver. 72% of the patients registered hyperbilirubinemia, increased level of alanine aminotransferase (ALT) and slight rise in γ-globulin fraction of the blood proteins, chiefly, due to IgM, which evidenced a certain activity of the chronic inflammatory process.

[2] = tested on: rats with acute toxic hepatitis; test: Acute toxic hepatitis induced by CCl4 in rats
Method: Freshly made solution heated to 30–35° C. was introduced into the femoral region at the ratio of 0.5 ml per 100 g of the animal's body weight, daily for 5 days.
In 5 days after the tetrapeptide administration completion, the rats were euthanaised and the investigation results were assessed.
In 20 days after the experiment onset, the rats were euthanaised.
The control animals received natural saline injections according to the same plans.
The state of the animals' liver was assessed by the data of biochemical analysis defining the concentration of protein, bilirubin, cholesterol, alanine aminotransferase (ALT) and aspartate aminotransferase (AST).
Tissue bits were fixed in 10% formalin solution in a 0.1M sodium phosphate buffer (pH 7.4). The histological preparations were stained with haematoxylin-eosin, staining for fat was performed with Sudan-3 and for glycogen—according to McManus.

rats = test: Chronic toxicity, daily intramuscular injection for 6 months; type: in vivo; settings: i.m. 1 μg/kg, 0.1 mg/kg, 1 mg/kg daily for 6 months
Method: The animals were intramuscularly injected with the preparation in the doses of 1 μg/kg, 0.1 mg/kg, 1 mg/kg in 0.5 ml of natural saline solution, daily for 6 months. Their behaviour, food and water consumption, state of hair integument and mucous membranes were noted. The rats were weighed daily during the first three months of the experiment and then once a month. In three months after the administration onset and at the experiment completion, haematological and biochemical investigations were conducted. The functions of the cardiovascular system, liver, pancreas, kidneys and adrenal glands were assessed. At the end of the tetrapeptide administration, part of the animals were subjected to a post mortem examination to assess the state of various segments of their brain and spinal marrow, heart, aorta, lungs, liver, kidneys, endocrine and immune organs.

[3] = tested on: hepatocyte monolayer culture of rats of various ages; test: Intensity of protein synthesis ([3H]-leucin inclusion) in monolayer hepatocyte culture; type: cell-based; settings: 0.005 μg/ml, 4 hours
Method: The intensity of protein synthesis was investigated in a hepatocyte culture of rats aged 4, 8 and 18 months.
To isolate hepatocytes, rat liver was perfused with calcium-free Hanks' solution added 0.5 mM of EDTA and then 0.05% collagenase solution in Medium 199. The cellular suspension was filtered out and centrifuged. The hepatocyte suspension in the concentration of 5×10^5 was introduced into Petri's dishes, their bottoms surfaced with collagen-covered glass. Applied Medium 199 contained no bovine serum but was added 0.2 mg/ml of albumen and 5 μg/ml of insulin. The dishes with glass-covered bottoms were placed in a thermostat at 37° C., aerated and added CO2. […]
Protein synthesis was assessed by [^3H]-leucin inclusion regarding the standard errors for a free marked leucin pull in the same culture. […] Radioactivity of the pull of free intracellular leucin and cellular proteins (in hyamine fraction) after adding the corresponding scintillators was measured on a radioactivity counter SL-30.
The intensity of protein synthesis was calculated by the formula: Icorr=Ii×Pav/Pi(cpm), where
Icorr—inclusion of leucin regarding the standard errors of free leucin pull, Ii—measured radioactivity of the proteins for i-culture, Pav—mean radioactivity of proteins and pull for the cultures studied in this experiment, Pi—total radioactivity of proteins and pull of the same culture.

white mongrel male mice = test: Acute toxicity according to Kerber, single intramuscular administration; type: in vivo
Source text: This study was designed to define the tolerable toxic doses of the preparation, assess the degree and character of pathologic alterations in various organs and systems of the organism and reveal the dependence of toxic effects on the dosage and duration of the preparation intake.
Examined were 72 white mongrel male mice weighing 20–22 g. The mice were kept in vivarium under standard regimen and fed upon standard rations. They were randomised to six equal groups, 12 mice in each. The animals were once intramuscularly administered with 0.25 ml of the preparation in the doses of 1 mg/kg, 2 mg/kg, 3 mg/kg, 4 mg/kg and 5 mg/kg (several thousand times exceeding the therapeutic dose recommended for clinical trials). The control animals received the same amount of natural saline solution.
No alterations in their general state, behaviour, motor activity, hair and skin integument, physiological discharge were registered.

[4] = tested on: liver fragments of 10–11-days old chicken embryos; test: Development of liver explants (square index); type: cell-based; settings: 20 ng/ml, third day of cultivation
Method: The experiments were carried out in 53 liver fragments of 10–11-days old chicken embryos. Nutrient medium for the explant cultivation consisted of 35% of Eagle's solution, 25% of foetal calf serum, 35% of Hank's solution and 5% of chicken embryonic extract. The mixture is added glucose (0.6%), insulin (0.5 unit/ml), penicillin (100 unit/ml) and glutamine (2 mM). The liver fragments were placed in this medium and cultivated in Petri's dishes in a thermostat at 36.7° C. during 48 hours. […] Square index (SI) was taken for a biological activity criterion and calculated as a correlation of the total explant square including the growth zone to the initial square of a liver fragment. The SI values were expressed per cent, the control SI value taken for 100%.

white mongrel rats = test: Subacute toxicity, daily intramuscular injection for 90 days; type: in vivo; settings: i.m. 1 μg/kg, 0.3 mg/kg, 3 mg/kg daily for 90 days
Method: The animals were intramuscularly injected with the preparation once a day in the doses of 1 μg/kg, 0.3 mg/kg, 3 mg/kg in 0.5 ml of natural saline solution, daily for 90 days. The control animals were administered with natural saline solution in the same amount.
The animals were under daily observation during the whole course of investigation. Their behaviour, food and water consumption, state of hair integument and mucous membranes were noted. The rats were weighed weekly. Before the preparation administration and on the 30th, 60th and 90th days thereof the morphological composition and properties of their peripheral blood were examined. Biochemical and coagulological properties of the blood were studied at the experiment completion.

[5] = after treatment, i.m. once a day 0.01–100 μg/kg, 10–40 days
[6] = against the background of the applied treatment
[7] = Day 5, 1 μg i.m. for 5 days accompanying CCl4 impact
[8] = Day 20, 1 μg i.m. daily for 15 days after CCl4 impact
[9] = Day 20, tetrapeptide after CCl4 impact

SMILES: O=P1(N(CCCl)CCCl)NCCCO1 (centres unmarked) [Cyclophosphamide, reference compound]
- Mean life span (days after the tumour transplantation) (hepatoma-27): 61.50 ± 4.58 days
- Tumour growth (hepatoma-27): stable decrease in the tumour growth rate
- Animals with complete tumour resolution (hepatoma-27): three

SMILES: C[C@H](NC(=O)[C@H](CC(=O)O)NC(=O)[C@H](CCC(=O)O)NC(=O)[C@@H](N)CCCCN)C(=O)O [Lys-Glu-Asp-Ala tetrapeptide, lysyl-glutamyl-aspartyl-alanine] (H-KEDA-OH)
- IgA ([1]; after treatment): 2.30 ± 0.07 g/L
- IgG ([1]; after treatment): 13.9 ± 0.9 g/L
- IgM ([1]; after treatment): 1.50 ± 0.03 g/L
- ALT (peripheral blood) [1, 5]: 40.8 ± 3.1 mmol/L
- AST (peripheral blood) [1, 5]: 38.5 ± 2.4 mmol/L
- Bilirubin (peripheral blood) [1, 5]: 21.7 µM
- Cholesterol (peripheral blood) [1, 5]: 5.1 ± 0.3 mmol/L
- GGT (peripheral blood) [1, 5]: 41.6 ± 4.5 mmol/L
- Triglycerides (peripheral blood) [1, 5]: 2.2 ± 0.2 mmol/L
- Patients noting weakness elimination, improved appetite and increased workability [1, 6]: 93%
- Patients with significantly lower intensity of the pain syndrome [1, 6]: 51%
- ALT [2, 7]: 35.3 ± 3.8 international units per ml
- AST [2, 7]: 35.6 ± 4.3 international unit per ml
- Cholesterol [2, 7]: 4.1 ± 0.25 mm/l
- Protein (blood) [2, 7]: 77.8 ± 3.7 g/L
- Total bilirubin [2, 7]: 12.5 ± 2.1 µmol/L
- Hepatocytes with fat inclusions ([2]; Day 5, tetrapeptide accompanying CCl4 impact): 49.8 ± 6.3 %
- ALT [2, 8]: 5.3 ± 0.98 international units per ml
- AST [2, 8]: 11.3 ± 1.9 international unit per ml
- Cholesterol [2, 8]: 4.2 ± 0.35 mm/l
- Protein (blood) [2, 8]: 83.4 ± 3.4 g/L
- Total bilirubin [2, 8]: 14.8 ± 3.2 µmol/L
- Hepatocytes with fat inclusions [2, 9]: 10.0 ± 2.1 %
- Hepatocytes with glycogen synthesis [2, 9]: 90.0 ± 8.1 %
- Hepatocytes with negative staining for fat ([2]; Day 20, tetrapeptide for 15 days after CCl4 impact): 90%
- Concentration of protein, bilirubin, cholesterol and aminotransferases in the blood ([2]; tetrapeptide during 15 days after the end of CCl4 impact): restored to the normal values
- Pathologic alterations (general state, blood indices, organs, liver and kidney functions), chronic toxicity (rats): no pathologic alterations
- Protein synthesis oscillation amplitude ([3]; hepatocytes of older rats): increased significantly
- Level of protein synthesis in hepatocytes ([3]; rats aged 4, 8 and 18 months, strongest effect in cells of older animals): raised the level of protein synthesis
- Acute toxic reactions (white mongrel male mice; doses several thousand times exceeding the therapeutic one): does not entail any acute toxic reactions
- Death of animals (white mongrel male mice; single intramuscular 1, 2, 3, 4, 5 mg/kg, 72 hours and 14 days): none of the animals died
- Increase in the explant square index (SI) compared to control [4]: 24%
- Tumour size relative to controls (times less) (hepatoma-27; 30th day, 1 μg/kg s.c. daily for 10 days): 2.5 times
- Mean life span (days after the tumour transplantation) (hepatoma-27): 68.00 ± 1.23 days
- Tumour growth (hepatoma-27): stable inhibition of the tumour growth
- Proportion of ulcer-bearing animals (hepatoma-27; tetrapeptide from the 39th day after transplantation, cyclophosphamide only on the 43rd day): significant decrease in the proportion of ulcer-bearing animals
- Animals with complete tumour resolution (hepatoma-27): Three
- Pathologic alterations (general state, blood indices, organs, liver and kidney functions), subacute toxicity (white mongrel rats): no pathologic alterations

From patent US7101854B2, “Tetrapeptide stimulating the functional activity of hepatocytes, pharmacological substance on its basis and the method of its application” (Sankt-Peterburgskaya Obschestvennaya Organizatsiya …, priority 2000, dated 2006)
